Consider 1 molecule from US8808716B2, “Topical foam composition” (Stiefel Research Australia Pty Ltd, priority 2009, dated 2014).

Molecules are shown by their SMILES.

This series is described as follows: accelerated stability study (HPLC) of compatibility of tazarotene with surfactants. Type of series: physicochemical. To be noted: 50° C.; in hydrophilic ethoxylated fatty alcohol ether surfactant such as Ceteareth-12, in contrast to various lipophilic surfactants. The procedure: An accelerated stability study (using HPLC) was conducted at 50° C. to measure the compatibility of tazarotene with various surfactants.

For the molecule `CCOC(=O)c1ccc(C#Cc2ccc3c(c2)C(C)(C)CCS3)nc1` [tazarotene], the “tazarotene stability (compatibility with surfactant)” value is “most stable”.
